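Following 48 hours of exposure in 96-well plates, responses at five concentrations were used to interpolate endpoints linearly. At the TGI there is no net growth.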 *1 amine or outer side, *2 acyl side, *3 side chain or, on linkers, in order; H or OH if unused. Where a SMILES comes first, the peptide text is derived from it. The star is where a group is joined. γGlu = O=C(O)[CH](CCC(=O)[*:2])N[*:1]; NHOH = ON*
Experiments:
Assay in all cases: DTP human tumour cell line panel, 48 h
SK-OV-3 ovarian = system: SK-OV-3 ovarian
HT29 colon = system: HT29 colon
SNB-75 CNS = system: SNB-75 CNS
IGROV1 ovarian = system: IGROV1 ovarian
HOP-92 NSCLC = system: HOP-92 NSCLC
PC-3 prostate = system: PC-3 prostate
MCF7 breast = system: MCF7 breast
DU-145 prostate = system: DU-145 prostate
ACHN renal = system: ACHN renal
A498 renal = system: A498 renal
HCT-116 colon = system: HCT-116 colon
SN12C renal = system: SN12C renal
MDA-N = system: MDA-N
SK-MEL-28 melanoma = system: SK-MEL-28 melanoma
SF-295 CNS = system: SF-295 CNS
SNB-19 CNS = system: SNB-19 CNS
HL-60(TB) leukemia = system: HL-60(TB) leukemia
SF-539 CNS = system: SF-539 CNS
SW-620 colon = system: SW-620 colon
NCI-H460 lung = system: NCI-H460 lung

Row | Compound | TGI (SK-OV-3 ovarian) [µM] | TGI (HT29 colon) [µM] | TGI (SNB-75 CNS) [µM] | TGI (IGROV1 ovarian) [µM] | TGI (HOP-92 NSCLC) [µM] | TGI (PC-3 prostate) [µM] | TGI (MCF7 breast) [µM] | TGI (DU-145 prostate) [µM] | TGI (ACHN renal) [µM] | TGI (A498 renal) [µM] | TGI (HCT-116 colon) [µM] | TGI (SN12C renal) [µM] | TGI (MDA-N) [µM] | TGI (SK-MEL-28 melanoma) [µM] | TGI (SF-295 CNS) [µM] | TGI (SNB-19 CNS) [µM] | TGI (HL-60(TB) leukemia) [µM] | TGI (SF-539 CNS) [µM] | TGI (SW-620 colon) [µM] | TGI (NCI-H460 lung) [µM]
1 | CCc1ccc(/C=C/C(=O)C2CN(CC)CCC2(O)/C=C/c2ccc(CC)cc2)cc1 (stereo unspecified) | 25 | 3.79 | 21.6 | 4.35 | 5.33 | 12.4 | 7.34 | 21.6 | 3.68 | 23.1 | 3.25 | 14.1 | 10.6 | 3.04 | 8.9 | 23.3 | > 24.6 | 6 | 4.4 | 7.26
2 | Cc1ccc(S(=O)(=O)N/N=C2\CC(C)OC3=C2CCCCCC3)cc1 (stereo unspecified) | 62.8 | 34.9 | 52.4 | 38.2 | 36.7 | 38.9 | 38.2 | 37.6 | 32.8 | 29.7 | 30.4 | 34.4 | > 100 | 39.3 | 35.9 | 44.1 | 54.6 | 38.9 | 36.4 | > 100
3 | O=C(O)c1nc2ccccc2nc1NCc1ccc(F)cc1 | – | > 100 | > 100 | > 100 | > 100 | > 100 | > 100 | > 100 | – | > 100 | > 100 | > 100 | > 100 | > 100 | > 100 | > 100 | > 100 | > 100 | > 100 | > 100
4 | Cn1cnc2c1c(=O)n(CCNCCO)c(=O)n2C | > 100 | > 100 | > 100 | > 100 | > 100 | > 100 | > 100 | > 100 | > 100 | > 100 | > 100 | > 100 | > 100 | > 100 | > 100 | > 100 | > 100 | > 100 | > 100 | > 100
5 | CCCCCC(=Nc1n[nH]nc1C(N)=O)OCC | > 100 | > 100 | > 100 | > 100 | > 100 | > 100 | > 100 | > 100 | > 100 | > 100 | > 100 | > 100 | > 100 | > 100 | > 100 | > 100 | > 100 | > 100 | > 100 | > 100
6 | CCOC(=O)CNC(=O)C(CCC(=O)NO)NC(=O)CCC(N)C(=O)O (stereo unspecified) (γGlu-Glu(NHOH)-Gly-OEt; configuration not given here) | > 100 | > 100 | > 100 | > 100 | > 100 | > 100 | > 100 | > 100 | > 100 | > 100 | > 100 | > 100 | > 100 | > 100 | > 100 | > 100 | > 100 | > 100 | > 100 | > 100
7 | c1ccc2c3nnc(c2c1)SCCCSc1nnc(c2ccccc12)SCCCS3 | > 100 | > 100 | 50.3 | > 100 | 94.3 | > 100 | > 100 | > 100 | > 100 | > 100 | > 100 | > 100 | > 100 | > 100 | > 100 | > 100 | > 100 | 28.3 | > 100 | > 100
8 | C#CC(O)/C=C/C(O)CCCC(O)CC#CC(O)C#CC(O)CCCC(O)/C=C/CCCCCC(=O)CCCCCCCCCCCCCC(O)C(O)C#CC(=O)O (stereo unspecified) | > 50 | > 50 | 26 | 36.6 | 27.1 | > 50 | 38.7 | > 50 | > 50 | > 50 | > 50 | > 50 | > 50 | 25 | > 50 | > 50 | > 50 | – | – | > 50
9 | CC1OC(OCC2OC(Oc3ccc(C4CC(=O)c5c(O)cc(O)cc5O4)cc3O)C(O)C(O)C2O)C(O)C(O)C1O (stereo unspecified) | > 100 | > 100 | > 100 | > 100 | > 100 | > 100 | > 100 | > 100 | > 100 | > 100 | > 100 | > 100 | > 100 | > 100 | > 100 | > 100 | > 100 | > 100 | > 100 | > 100
10 | N#CC1=C(N)OC(c2cccc([N+](=O)[O-])c2)C1(C#N)C#N (stereo unspecified) | > 100 | 37.2 | 24.7 | 35.4 | 32.3 | 51.4 | 48.5 | 31.2 | 33.2 | 36.7 | 28.5 | > 100 | 62.6 | – | 73.2 | 42.5 | > 100 | 42.5 | – | –
11 | COC(=O)[C@@H]1COC(C(C)(C)C)N1C(=O)C(c1ccccc1)c1ccccc1 (stereo partly specified) | 88.4 | > 100 | > 100 | > 100 | > 100 | > 100 | > 100 | > 100 | > 100 | > 100 | > 100 | > 100 | 69.2 | > 100 | > 100 | > 100 | 83.4 | > 100 | > 100 | > 100
12 | O=C1CSC(c2ccccc2O)N1c1nc2cc3sc(N4C(=O)CSC4c4ccccc4O)nc3cc2s1 (stereo unspecified) | > 100 | > 100 | > 100 | > 100 | > 100 | > 100 | > 100 | > 100 | > 100 | > 100 | > 100 | > 100 | > 100 | > 100 | > 100 | > 100 | > 100 | > 100 | > 100 | > 33.6
13 | CSc1nc(Br)nc2ncn(C3CC(Oc4ccc(C)cc4)C(COc4ccc(C)cc4)O3)c12 (stereo unspecified) | > 100 | > 100 | > 100 | > 100 | > 100 | > 100 | > 100 | > 100 | > 100 | > 100 | > 100 | > 100 | > 100 | > 100 | > 100 | > 100 | > 100 | > 100 | > 100 | > 100
14 | CC(C)NC(=O)OCc1c(COC(=O)NC(C)C)c(-c2cc[n+](COC(=O)C(C)C)cc2)n2c1CCC2 | > 100 | > 100 | > 100 | > 100 | > 100 | > 100 | > 100 | > 100 | > 82.7 | 35.9 | > 100 | > 100 | > 100 | > 100 | > 100 | > 100 | > 77.7 | > 100 | > 100 | > 100
15 | CCCCCC1=C2C(c3ccc(OC)cc3)=C(N)C(c3ccc(OC)cc3)=C3NC(=O)C(C=C1)C32 (stereo unspecified) | > 100 | > 100 | > 100 | > 100 | 60.7 | > 100 | > 100 | > 100 | > 100 | > 100 | > 100 | > 100 | > 100 | > 100 | > 100 | > 100 | > 100 | – | > 100 | > 100
16 | CC(=O)Oc1ccc(/C=C/C(=O)OCCOC(=O)/C=C/c2ccc(OC(C)=O)c(OC(C)=O)c2)cc1OC(C)=O | 35 | > 56.7 | 22.5 | 10.7 | 26.7 | 58.8 | 28.6 | 28.6 | 35.8 | 52.5 | 20.9 | 69 | 23.5 | 29.4 | 25.4 | > 77.9 | > 44.6 | 13.4 | 49 | 32
17 | CCOC(=O)CC(=O)CSc1c(-c2ccccc2)c(=O)n(-c2ccccc2)c(=S)n1-c1ccccc1 | > 100 | > 100 | > 100 | > 100 | > 100 | > 100 | > 100 | > 100 | > 100 | > 100 | > 100 | > 100 | > 100 | > 100 | > 100 | > 100 | > 100 | > 100 | > 100 | > 100
18 | CNc1ncnc2c1cnn2CCCCO | > 100 | > 100 | – | > 100 | > 100 | > 100 | > 100 | > 100 | > 100 | > 100 | > 100 | > 100 | > 100 | > 100 | > 100 | > 100 | > 100 | > 100 | > 100 | > 100
19 | Cc1cc2c(cc1C)C(=O)/C(=C/c1ccccc1C(=O)O)C2 | – | > 100 | > 100 | > 100 | > 100 | > 100 | > 100 | > 100 | > 100 | 88.6 | > 100 | > 100 | > 100 | > 100 | > 100 | > 100 | > 100 | 39.6 | > 100 | > 100
20 | CCOC(=O)C(NC(=O)c1ccccc1)(Nc1ccc(S(=O)(=O)Nc2cc(C)nc(C)n2)cc1)C(F)(F)F (stereo unspecified) | – | > 100 | > 100 | > 100 | > 100 | > 100 | > 100 | > 100 | > 100 | > 100 | > 100 | > 100 | > 100 | > 100 | > 100 | > 100 | > 100 | > 100 | > 100 | > 100
21 | Nc1nnc2oc3ccc4ccccc4c3cc1-2 | > 100 | > 100 | 81 | > 100 | > 100 | > 100 | > 100 | > 100 | 80.1 | 71.8 | > 100 | 87 | > 100 | > 100 | > 100 | > 100 | 67.9 | – | > 100 | > 100
22 | O=C1OCCC[C@H]2O[C@@H](COCc3ccccc3)C[C@@H]12 | > 100 | > 100 | > 100 | – | > 100 | > 100 | > 100 | > 100 | > 100 | > 100 | > 100 | > 100 | > 100 | > 100 | > 100 | > 100 | > 100 | > 100 | > 100 | > 100
23 | NCCNCCCNC(=O)c1cc(-c2ccccc2)nc2ccccc12 | > 100 | > 100 | – | > 100 | 55.4 | > 100 | > 100 | > 100 | > 100 | > 100 | > 100 | > 100 | 66.8 | 33 | > 100 | > 100 | > 100 | 36.7 | > 100 | > 100

Source: PubChem BioAssay (NCI)
